Measured values: patent US8389557B2, “Triazole derivatives useful as Axl inhibitors” (Rigel Pharmaceuticals, Inc., priority 2005, dated 2013)
Each block holds one compound with its values, some of them ahead of it.

Biological target: T1, Axl (Homo sapiens, UniProt P30530)
T1 construct: endogenous in cells; host or cells: HeLa cells
T1 sequence (P30530 26-894): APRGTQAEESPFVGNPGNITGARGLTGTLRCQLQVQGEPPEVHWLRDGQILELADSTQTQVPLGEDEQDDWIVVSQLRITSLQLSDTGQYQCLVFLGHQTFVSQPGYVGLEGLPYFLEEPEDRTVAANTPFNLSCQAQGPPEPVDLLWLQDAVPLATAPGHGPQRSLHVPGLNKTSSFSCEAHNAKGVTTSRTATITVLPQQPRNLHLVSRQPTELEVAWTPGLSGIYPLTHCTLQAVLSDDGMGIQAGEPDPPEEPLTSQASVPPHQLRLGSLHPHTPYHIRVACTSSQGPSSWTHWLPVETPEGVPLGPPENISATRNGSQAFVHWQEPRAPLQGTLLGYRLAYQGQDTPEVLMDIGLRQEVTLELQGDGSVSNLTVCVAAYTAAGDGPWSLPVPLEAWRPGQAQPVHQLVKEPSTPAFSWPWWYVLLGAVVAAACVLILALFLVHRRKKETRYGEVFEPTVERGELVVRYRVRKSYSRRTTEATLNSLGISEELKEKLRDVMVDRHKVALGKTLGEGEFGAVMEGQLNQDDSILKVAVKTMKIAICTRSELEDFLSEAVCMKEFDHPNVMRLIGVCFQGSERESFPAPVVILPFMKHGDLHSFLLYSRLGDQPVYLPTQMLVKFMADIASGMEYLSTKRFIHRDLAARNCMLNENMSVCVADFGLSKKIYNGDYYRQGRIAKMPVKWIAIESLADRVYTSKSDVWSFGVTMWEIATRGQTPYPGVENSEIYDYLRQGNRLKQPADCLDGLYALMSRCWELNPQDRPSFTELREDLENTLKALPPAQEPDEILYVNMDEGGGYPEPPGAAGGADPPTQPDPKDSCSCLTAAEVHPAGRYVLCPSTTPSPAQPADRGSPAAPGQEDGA
Assay: Phospho-Akt in-cell Western assay (inhibition of Axl activity)
Type: cell-based
Outline: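 HeLa cells on poly-L-lysine, starved 24 h in 0.5% FCS DMEM with Axl/Fc 500 ng/mL, pre-treated with compound 1 h at 37° C. Axl stimulated 5 min by anti-Axl/anti-mouse antibody cross-linking. Fixed cells probed with anti-phospho-Akt and HRP secondary, chemiluminescence read.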

[1] = Table 4, Hela cells, Axl antibody cross-linking stimulation, phospho-Akt chemiluminescence
[2] = Table 3, Hela cells, Axl antibody cross-linking stimulation, phospho-Akt chemiluminescence
[3] = inhibition of Axl activity, phospho-Akt in-cell Western assay, Table 1
[4] = Table 6, Hela cells, Axl antibody cross-linking stimulation, phospho-Akt chemiluminescence
[5] = Table 5, Hela cells, Axl antibody cross-linking stimulation, phospho-Akt chemiluminescence

IC50 [1]: < 1000 nM
Structure (SMILES): Nc1nc(Nc2ccc(OCCn3ccnc3)cc2)n(C(=O)c2ccc3sccc3c2)n1 [compound 378, 3-amino-1-(benzo[b]thiophen-5-yl)carbonyl-5-[4-[2-(imidazol-1-yl)ethoxy]phenylamino]-1H-1,2,4-triazole]

IC50 [2]: < 1000 nM
Structure (SMILES): Nc1nc(Nc2ccc(OCCn3ccnc3)cc2)nn1C(=O)c1cc2ccccc2s1 [compound 379, 5-amino-1-(benzo[b]thiophen-2-yl)carbonyl-3-[4-[2-(imidazol-1-yl)ethoxy]phenylamino]-1H-1,2,4-triazole]

IC50 [3]: < 1000 nM
Structure (SMILES): COc1ccc(C(=O)n2nc(Nc3ccc(OCCN4CCCC4)cc3)nc2N)cc1F [compound 381, 5-amino-1-(3-fluoro-4-methoxyphenyl)carbonyl-3-[4-[2-(pyrrolidin-1-yl)ethoxy]phenylamino]-1H-1,2,4-triazole]

IC50 [3]: < 1000 nM
Structure (SMILES): Nc1nc(Nc2ccc(OCCN3CCCC3)cc2)nn1C(=O)c1ccc(N2CCOCC2)cc1 [compound 382, 5-amino-1-(4-(morpholin-4-yl)phenyl)carbonyl-3-[4-[2-(pyrrolidin-1-yl)ethoxy]phenylamino]-1H-1,2,4-triazole]

IC50 [3]: < 1000 nM
Structure (SMILES): CN1CCN(c2ccc(C(=O)n3nc(Nc4ccc(OCCN5CCCC5)cc4)nc3N)cc2)CC1 [compound 383, 5-amino-1-(4-(4-methylpiperazin-1-yl)phenyl)carbonyl-3-[4-[2-(pyrrolidin-1-yl)ethoxy]phenylamino]-1H-1,2,4-triazole]

Structure (SMILES): CC(C)(C)Oc1ccc(C(=O)n2nc(Nc3ccc(OCCN4CC[C@H](F)C4)cc3)nc2N)cc1 [compound 384, 5-amino-1-(4-(tert-butoxy)phenyl)carbonyl-3-[4-[2-((S)-3-fluoropyrrolidin-1-yl)ethoxy]phenylamino]-1H-1,2,4-triazole]
IC50 [3]: < 1000 nM

IC50 [3]: < 1000 nM
Structure (SMILES): CN(C)c1ccc(C(=O)n2nc(Nc3ccc(OCCN4CC[C@H](F)C4)cc3)nc2N)cc1 [compound 385, 5-amino-1-(4-(dimethylamino)phenyl)carbonyl-3-[4-[2-((S)-3-fluoropyrrolidin-1-yl)ethoxy]phenylamino]-1H-1,2,4-triazole]

IC50 [2]: < 1000 nM
Structure (SMILES): Nc1nc(Nc2ccc(OCCN3CC[C@H](F)C3)cc2)nn1C(=O)c1ccc2c(c1)OCCO2 [compound 386, 5-amino-1-(1,4-benzodioxan-6-yl)carbonyl-3-[4-[2-((S)-3-fluoropyrrolidin-1-yl)ethoxy]phenylamino]-1H-1,2,4-triazole]

IC50 [1]: < 1000 nM
Structure (SMILES): Nc1nc(Nc2ccc(OCCN3CC[C@H](F)C3)cc2)n(C(=O)c2ccc3c(c2)OCCO3)n1 [compound 387, 3-amino-1-(1,4-benzodioxan-6-yl)carbonyl-5-[4-[2-((S)-3-fluoropyrrolidin-1-yl)ethoxy]phenylamino]-1H-1,2,4-triazole]

IC50 [2]: < 1000 nM
Structure (SMILES): Nc1nc(Nc2ccc(OCCN3CC[C@H](F)C3)cc2)nn1C(=O)c1ccc2cc[nH]c2c1 [compound 388, 5-amino-1-(1H-indol-6-yl)carbonyl-3-[4-[2-((S)-3-fluoropyrrolidin-1-yl)ethoxy]phenylamino]-1H-1,2,4-triazole]

IC50 [1]: < 1000 nM
Structure (SMILES): Nc1nc(Nc2ccc(OCCN3CC[C@H](F)C3)cc2)n(C(=O)c2ccc3cc[nH]c3c2)n1 [compound 389, 3-amino-1-(1H-indol-6-yl)carbonyl-5-[4-[2-((S)-3-fluoropyrrolidin-1-yl)ethoxy]phenylamino]-1H-1,2,4-triazole]

IC50 [3]: < 1000 nM
Structure (SMILES): COc1c(F)cc(C(=O)n2nc(Nc3ccc(OCCN4CCCC4)cc3)nc2N)cc1F [compound 390, 5-amino-1-(3,5-difluoro-4-methoxyphenyl)carbonyl-3-[4-[2-(pyrrolidin-1-yl)ethoxy]phenylamino]-1H-1,2,4-triazole]

IC50 [4]: > 20000 nM
Structure (SMILES): CS(=O)(=O)N1CCC(Nc2nc(N)nn2C(=O)c2c(F)cccc2F)CC1 [compound 391, 3-amino-1-(2,6-difluorophenyl)carbonyl-5-(1-methylsulfonylpiperidin-4-yl)amino-1H-1,2,4-triazole]

IC50 [5]: > 20000 nM
Structure (SMILES): CS(=O)(=O)N1CCC(Nc2nc(N)n(C(=O)c3c(F)cccc3F)n2)CC1 [compound 392, 5-amino-1-(2,6-difluorophenyl)carbonyl-3-(1-methylsulfonylpiperidin-4-yl)amino-1H-1,2,4-triazole]

Structure (SMILES): CC(C)(C)Oc1ccc(C(=O)n2nc(NC3CCN(S(C)(=O)=O)CC3)nc2N)cc1 [compound 393, 5-amino-1-(4-(tert-butoxy)phenyl)carbonyl-3-(1-methylsulfonylpiperidin-4-yl)amino-1H-1,2,4-triazole]
IC50 [5]: > 20000 nM

IC50 [5]: > 20000 nM
Structure (SMILES): CN(C)c1ccc(C(=O)n2nc(NC3CCN(S(C)(=O)=O)CC3)nc2N)cc1 [compound 395, 5-amino-1-(4-(dimethylamino)phenyl)carbonyl-3-(1-methylsulfonylpiperidin-4-yl)amino-1H-1,2,4-triazole]

IC50 [4]: > 20000 nM
Structure (SMILES): CN(C)c1ccc(C(=O)n2nc(N)nc2NC2CCN(S(C)(=O)=O)CC2)cc1 [compound 396, 3-amino-1-(4-(dimethylamino)phenyl)carbonyl-5-(1-methylsulfonylpiperidin-4-yl)amino-1H-1,2,4-triazole]

IC50 (Table 9, Hela cells, Axl antibody cross-linking stimulation, phospho-Akt chemiluminescence): > 20000 nM
Structure (SMILES): CS(=O)(=O)N1CCC(Nc2nc(N)n(C(=O)c3ccc4c(c3)OCCO4)n2)CC1 [compound 397, 5-amino-1-(1,4-benzodioxan-6-yl)carbonyl-3-(1-methylsulfonylpiperidin-4-yl)amino-1H-1,2,4-triazole]

IC50 [5]: > 20000 nM
Structure (SMILES): CS(=O)(=O)N1CCC(Nc2nc(N)n(C(=O)c3ccc(N4CCOCC4)cc3)n2)CC1 [compound 399, 5-amino-1-(4-(morpholin-4-yl)phenyl)carbonyl-3-(1-methylsulfonylpiperidin-4-yl)amino-1H-1,2,4-triazole]

IC50 [3]: < 1000 nM
Structure (SMILES): Nc1nc(Nc2ccc(OCCN3CCCC3)cc2)nn1C(=O)c1ccc(N2CCS(=O)(=O)CC2)cc1 [compound 400, 5-amino-1-(4-(1,1-dioxo-thiomorpholin-4-yl)phenyl)carbonyl-3-[4-[2-(pyrrolidin-1-yl)ethoxy]phenylamino]-1H-1,2,4-triazole]

IC50 [3]: < 1000 nM
Structure (SMILES): Nc1nc(Nc2ccc(OCCN3CCCC3)cc2)nn1C(=O)c1ccc(N2CCCCC2)cc1 [compound 401, 5-amino-1-(4-(piperidin-1-yl)phenyl)carbonyl-3-[4-[2-(pyrrolidin-1-yl)ethoxy]phenylamino]-1H-1,2,4-triazole]

IC50 [3]: > 20000 nM
Structure (SMILES): Nc1nc(Nc2ccc(OCCN3CCCC3)c(Cl)c2)nn1C(=O)c1cc(Cl)cc(Cl)c1 [compound 402, 5-amino-3-[3-chloro-4-[2-(pyrrolidin-1-yl)ethoxy]phenylamino]-1-(3,5-dichlorophenyl)carbonyl-1H-1,2,4-triazole]

Structure (SMILES): CC(C)(C)Oc1ccc(C(=O)n2nc(Nc3ccc(OCCN4CCCC4)cc3)nc2N)cc1 [compound #1, 5-Amino-3-[4-[2-(pyrrolidin-1-yl)ethoxy]phenylamino]-1-(4-(tert-butoxy)phenyl)carbonyl-1H-1,2,4-triazole]
IC50 [3]: < 1000 nM

IC50 [3]: < 1000 nM
Structure (SMILES): CN(C)c1ccc(C(=O)n2nc(Nc3ccc(OCCN4CCCCC4)cc3)nc2N)cc1 [compound #2, 5-Amino-1-(4-(dimethylamino)phenyl)carbonyl-3-[4-[2-(piperidin-1-yl)ethoxy]phenylamino]-1H-1,2,4-triazole]

IC50 [2]: < 1000 nM
Structure (SMILES): Nc1nc(Nc2ccc(OCCN3CCCC3)cc2)nn1C(=O)c1ccc2[nH]ccc2c1 [compound #3, 5-Amino-1-(1H-indol-5-yl)carbonyl-3-[4-[2-(pyrrolidin-1-yl)ethoxy]phenylamino]-1H-1,2,4-triazole]
